Assay results taken from ChEMBL document CHEMBL5512665, “A CARM1 Inhibitor Potently Suppresses Breast Cancer Both In Vitro and In Vivo” (J Med Chem, 2024).
Calls of active or inactive are those of the source. No cut-off for these calls is given here.

Key:
MCF7 [1] = experiment: Antitumor activity against human MCF7 cells xenografted in BALB/C mouse assessed as upregulation of DDX58 gene expression at 25 mg/kg,ip administrated every other day for 29 days by RT-qPCR analysis; format: functional, organism-based; settings: time 29.0 day
MCF7 [2] = experiment: Synergistic antiproliferative activity against human MCF7 cells assessed as downregulation of FOXC1 gene expression at 2.5 uM incubated for 6 hrs in presence of tamoxifen by RT-qPCR analysis; format: functional, cell-based
MCF7 [3] = experiment: Antitumor activity against human MCF7 cells xenografted in BALB/C mouse assessed as upregulation of CCL5 gene expression at 25 mg/kg,ip administrated every other day for 29 days by RT-qPCR analysis; format: functional, organism-based; settings: time 29.0 day
MCF7 [4] = experiment: Antitumor activity against human MCF7 cells xenografted in BALB/C mouse assessed as downregulation of GREB1 gene expression at 50 mg/kg,ip administrated every other day for 29 days by RT-qPCR analysis; format: functional, organism-based; settings: time 29.0 day
4T1 [5] = experiment: Antitumor activity against mouse 4T1 cells implanted in BALB/C mouse assessed as upregulation of ISG15 gene expression at 50 mg/kg,ip administrated daily for 14 days by RT-qPCR analysis; format: functional, organism-based; settings: time 14.0 day
MCF7 [6] = experiment: Antitumor activity against human MCF7 cells xenografted in BALB/C mouse assessed as upregulation of IFNalpha gene expression at 25 mg/kg,ip administrated every other day for 29 days by RT-qPCR analysis; format: functional, organism-based; settings: time 29.0 day
4T1 [7] = experiment: Antitumor activity against mouse 4T1 cells implanted in BALB/C mouse assessed as inhibition of tumor weight at 25 mg/kg,ip administrated daily for 14 days; format: functional, organism-based; settings: time 14.0 day
4T1 [8] = experiment: Potentiation of etoposide induced antiproliferative activity against mouse 4T1 cells assessed as inhibition of colony formation at 2.5 uM incubated for 10 days in presence of etoposide by crystal violet staining based analysis; format: functional, cell-based; settings: time 10.0 day
MCF7 [9] = experiment: Antitumor activity against human MCF7 cells xenografted in BALB/C mouse assessed as downregulation of FOXC1 gene expression at 25 mg/kg,ip administrated every other day for 29 days by RT-qPCR analysis; format: functional, organism-based; settings: time 29.0 day
[10] = Toxicity in BALB/C mouse xenografted with human MCF7 cells assessed as change in kidney morphology at 50 mg/kg,ip administrated every other day for 29 days; format: organism-based; settings: in vivo, 696 h, time 29 day
[11] = Toxicity in BALB/C mouse xenografted with human MDA-MB-231 cells assessed as change in liver morphology at 25 mg/kg,ip administrated daily for 11 days; format: organism-based; settings: in vivo, 264 h, time 11 day
4T1 [12] = experiment: Potentiation of etoposide induced antitumor activity against mouse 4T1 cells implanted in BALB/C mouse assessed as increase in infiltration of CD8 positive T cells at 25 mg/kg,ip administrated daily for 12 days in presence of 8 mg/kg etoposide administration by immunohistochemical staining based analysis; format: functional, organism-based; settings: time 12.0 day
4T1 [13] = experiment: Potentiation of etoposide induced antiproliferative activity against mouse 4T1 cells assessed as upregulation of CCL5 gene expression at 2.5 uM in presence of etoposide by RT-qPCR analysis; format: functional, cell-based
4T1 [14] = experiment: Antitumor activity against mouse 4T1 cells implanted in BALB/C mouse assessed as downregulation of CCND1 gene expression at 50 mg/kg,ip administrated daily for 14 days by RT-qPCR analysis; format: functional, organism-based; settings: time 14.0 day
MCF7 [15] = experiment: Antitumor activity against human MCF7 cells xenografted in BALB/C mouse assessed as downregulation of CCND1 gene expression at 50 mg/kg,ip administrated every other day for 29 days by RT-qPCR analysis; format: functional, organism-based; settings: time 29.0 day
[16] = Toxicity in BALB/C mouse xenografted with human MDA-MB-231 cells assessed as change in kidney morphology at 50 mg/kg,ip administrated daily for 11 days; format: organism-based; settings: in vivo, 264 h, time 11 day
[17] = Toxicity in BALB/C mouse implanted with mouse 4T1 cells assessed as change in body weight at 25 mg/kg,ip administrated daily for 14 days; format: organism-based; settings: in vivo, 336 h, time 14 day
4T1 [18] = experiment: Antitumor activity against mouse 4T1 cells implanted in BALB/C mouse assessed as inhibition of tumor weight at 50 mg/kg,ip administrated daily for 14 days; format: functional, organism-based; settings: time 14.0 day
4T1 [19] = experiment: Potentiation of etoposide induced antitumor activity against mouse 4T1 cells implanted in BALB/C mouse assessed as upregulation of DDX58 gene expression at 25 mg/kg,ip administrated daily for 12 days in presence of 8 mg/kg etoposide administration by RT-qPCR analysis; format: functional, organism-based; settings: time 12.0 day
MCF7 [20] = experiment: Synergistic antiproliferative activity against human MCF7 cells assessed as inhibition of colony formation at 2.5 uM incubated for 10 days in presence of tamoxifen by crystal violet staining based analysis; format: functional, cell-based; settings: time 10.0 day
MCF7 [21] = experiment: Antitumor activity against human MCF7 cells xenografted in BALB/C mouse assessed as downregulation of PGR gene expression at 50 mg/kg,ip administrated every other day for 29 days by RT-qPCR analysis; format: functional, organism-based; settings: time 29.0 day
4T1 [22] = experiment: Potentiation of etoposide induced antiproliferative activity against mouse 4T1 cells assessed as upregulation of IFIT1 gene expression at 2.5 uM in presence of etoposide by RT-qPCR analysis; format: functional, cell-based
[23] = Toxicity in BALB/C mouse xenografted with human MCF7 cells assessed as change in heart morphology at 25 mg/kg,ip administrated every other day for 29 days; format: organism-based; settings: in vivo, 696 h, time 29 day
4T1 [24] = experiment: Antitumor activity against mouse 4T1 cells implanted in BALB/C mouse assessed as upregulation of DDX58 gene expression at 25 mg/kg,ip administrated daily for 14 days by RT-qPCR analysis; format: functional, organism-based; settings: time 14.0 day
4T1 [25] = experiment: Potentiation of etoposide induced antiproliferative activity against mouse 4T1 cells assessed as inhibition of cell growth at 2.5 uM incubated for 7 days in presence of etoposide by celltiter 96 aqueous one solution cell proliferation assay; format: functional, cell-based; settings: time 7.0 day
MCF7 [26] = experiment: Synergistic antiproliferative activity against human MCF7 cells assessed as downregulation of N-Myc gene expression at 2.5 uM incubated for 6 hrs in presence of tamoxifen by RT-qPCR analysis; format: functional, cell-based
MCF7 [27] = experiment: Antitumor activity against human MCF7 cells xenografted in BALB/C mouse assessed as reduction of tumor weight at 50 mg/kg,ip administrated every other day for 29 days; format: functional, organism-based; settings: time 29.0 day
[28] = Toxicity in BALB/C mouse xenografted with human MCF7 cells assessed as change in spleen morphology at 50 mg/kg,ip administrated every other day for 29 days; format: organism-based; settings: in vivo, 696 h, time 29 day
MCF7 [29] = experiment: Antitumor activity against human MCF7 cells xenografted in BALB/C mouse assessed as upregulation of IFIT1 gene expression at 50 mg/kg,ip administrated every other day for 29 days by RT-qPCR analysis; format: functional, organism-based; settings: time 29.0 day
4T1 [30] = experiment: Antitumor activity against mouse 4T1 cells implanted in BALB/C mouse assessed as downregulation of FOXC1 gene expression at 50 mg/kg,ip administrated daily for 14 days by RT-qPCR analysis; format: functional, organism-based; settings: time 14.0 day
MCF7 [31] = experiment: Synergistic antitumor activity against human MCF7 cells xenografted in BALB/C mouse assessed as downregulation of N-Myc gene expression at 25 mg/kg,ip administrated every other day for 15 days in presence of 5 mg/kg tamoxifen oral administration by RT-qPCR analysis; format: functional, organism-based; settings: time 15.0 day
MCF7 [32] = experiment: Synergistic antiproliferative activity against human MCF7 cells assessed as downregulation of CCND1 gene expression at 2.5 uM incubated for 6 hrs in presence of fulvestrant by RT-qPCR analysis; format: functional, cell-based

Cc1ccc(-c2nc(N3CCN(CCN(C)C)CC3)ncc2-c2ccoc2)cc1.Cl.Cl
Activity (MCF7 [1]): Active
Activity (MCF7 [2]): Active
Activity (MCF7 [3]): Active
Activity (MCF7 [4]): Active
Activity (4T1 [5]): Active
Activity (MCF7 [6]): Active
Activity (4T1 [7]): Active
Activity (4T1 [8]): Active
Activity (MCF7 [9]): Active
Activity [10]: Non-Toxic
Activity [11]: Non-Toxic
Activity (4T1 [12]): Active
Activity (4T1 [13]): Active
Activity (4T1 [14]): Active
Activity (MCF7 [15]): Active
Activity [16]: Non-Toxic
Activity [17]: Non-Toxic
Activity (4T1 [18]): Active
Activity (4T1 [19]): Active
Activity (MCF7 [20]): Active
Activity (MCF7 [21]): Active
Activity (4T1 [22]): Active
Activity [23]: Non-Toxic
Activity (4T1 [24]): Active
Activity (4T1 [25]): Active
Activity (MCF7 [26]): Active
Activity (MCF7 [27]): Active
Activity [28]: Non-Toxic
Activity (MCF7 [29]): Active
Activity (4T1 [30]): Active
Activity (MCF7 [31]): Active
Activity (MCF7 [32]): Active
